# Data: patent US20240115557A1, “INHIBITORS OF RNA-GUIDED NUCLEASES AND USES THEREOF” (The Brigham and Women's Hospital, Inc., priority 2022, published 2024)
# Target: T1, SaCas9 (Staphylococcus aureus, UniProt J7RUA5)
# T1 sequence (J7RUA5 1-1053): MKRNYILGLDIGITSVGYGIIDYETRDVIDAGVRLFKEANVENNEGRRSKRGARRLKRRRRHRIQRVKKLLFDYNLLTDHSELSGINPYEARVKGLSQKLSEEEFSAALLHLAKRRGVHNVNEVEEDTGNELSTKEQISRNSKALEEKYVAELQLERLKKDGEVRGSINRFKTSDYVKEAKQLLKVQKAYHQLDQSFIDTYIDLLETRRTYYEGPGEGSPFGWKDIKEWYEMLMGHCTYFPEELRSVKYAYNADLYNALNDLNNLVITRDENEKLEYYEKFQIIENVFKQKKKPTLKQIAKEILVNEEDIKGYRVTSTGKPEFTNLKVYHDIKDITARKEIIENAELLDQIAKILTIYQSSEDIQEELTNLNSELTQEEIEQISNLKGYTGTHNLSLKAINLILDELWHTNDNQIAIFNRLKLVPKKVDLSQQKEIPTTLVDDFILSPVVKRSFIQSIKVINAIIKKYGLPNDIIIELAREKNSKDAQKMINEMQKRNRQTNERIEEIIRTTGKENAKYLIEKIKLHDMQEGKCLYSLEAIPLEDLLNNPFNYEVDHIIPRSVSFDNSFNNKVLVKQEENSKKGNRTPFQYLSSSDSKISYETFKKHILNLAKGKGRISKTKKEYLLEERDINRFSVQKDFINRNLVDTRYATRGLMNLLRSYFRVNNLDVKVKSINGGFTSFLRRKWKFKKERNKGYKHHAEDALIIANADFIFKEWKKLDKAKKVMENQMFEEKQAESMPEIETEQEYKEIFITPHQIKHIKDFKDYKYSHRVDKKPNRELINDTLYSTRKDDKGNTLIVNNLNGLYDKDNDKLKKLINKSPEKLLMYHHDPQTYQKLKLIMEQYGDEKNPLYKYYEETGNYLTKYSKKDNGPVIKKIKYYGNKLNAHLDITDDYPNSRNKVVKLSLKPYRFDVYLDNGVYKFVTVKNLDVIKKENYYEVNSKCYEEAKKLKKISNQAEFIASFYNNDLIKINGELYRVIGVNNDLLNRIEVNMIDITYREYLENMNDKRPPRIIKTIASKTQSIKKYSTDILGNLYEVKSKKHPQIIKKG
# Assay: Strand displacement assay, SaCas9 primary screen
# Assay type: biochemical
# Details: for Auto Zscore Rep 1 / Auto Zscore Rep 2 / Normalized Zscore Rep 1 / Normalized Zscore Rep 2: SaCas9 primary screen; for Auto Zscore Rep 1 / Normalized Zscore Rep 1: replicate 1; for Auto Zscore Rep 2 / Normalized Zscore Rep 2: replicate 2; for Normalized Zscore Rep 1 / Normalized Zscore Rep 2: weaker potential hits; for 3 sigma Hit: flag 1 = hit at 3 sigma; for 5 sigma Hit: flag 1 = hit at 5 sigma
# Method: An overview of the screening for SaCas9 inhibitors is depicted in FIG. 14. A total of 43,168 Compounds were screened from the ICCB Libraries. Libraries screened for the initial compounds include ChemDiv 7 (34,848 cpds), Enamine 1 (5,280 cpds), ChemDiv1 (1,760 cpds), NIH Clinical Collection (450 cpds), Biomol 4—FDA Approved Library (640 cpds). A hit is determined from the Zscore, with 3-5σ being a weak hit, >5σ being a strong hit. The results of the hits include 193 Weak Hits and 249 Strong Hits. The NIH Clinical Collection 1-2014 was screened for 450 of 450 compounds, with 7 hits—1.5%. The Biomol 4—FDA Approved Library was screened for 640 of 640 compounds, with 8 hits—1.2%. […] Enamine 1 was screened for 5,280 of 6,004 compounds, with 44 hits—0.83%. Libraries are commercially available, with reference numbers utilized for compounds identifying the compound structures used. […]
# Generalization of CAA to other Cas nucleases. Applicants sought to generalize CAA to other CRISPR-associated nucleases, including from Staphylococcus aureus (SaCas9). Given the similarities between SaCas9 and SpCas9 modes of DNA-substrate binding and protein folding,^26, 27 Applicants hypothesized that SaCas9-induced strand displacement could be similarly measured. Indeed, fluorescence quenching correlated with substrate cleavage in the CAA assay with active SaCas9:gRNA and an ACGGGT PAM sequence, which was validated with gel electrophoresis (FIG. 62F,G and FIG. 69F).
# First, Applicants optimized various components and conditions of the strand displacement assay for Cas enzyme activity and generality with different Cas such as SpCas9 (FIG. 62B) or SaCas9 (FIG. 69F) or FnCas12a (FIG. 70A,B). Typically, SpCas9: gRNA (1:1.2 ratio) RNP was pre-formed at 1 μM in Cas9 assay buffer (20 mM Tris-HCl, pH=7.5, 100 mM KCl, 5 mM MgCl2) for 5 min at 4° C. before diluting to 10 nM in Cas9 assay buffer (2× final concentration). 25 μL of the Cas9 2× stock was manually dispensed to a black 384-well plate (Corning 3575) using electronic pipette. Apo SpCas9 (without guide RNA) was used at the same concentration as a control for no activity (mock inhibition). Following this, pre-annealed Alexa-Fluor 647 labeled substrate and quencher were also diluted to 1 nM and 5 nM in Cas9 assay buffer, respectively (2× stock solution). Next, 25 μL of the substrate/quencher solution was added manually to each well of the Cas9-containing 384-well plates using an electronic pipette and was incubated at 37° C. for 2.5 h. Fluorescent signals were read with the microplate reader set to read Alexa-Fluor 647 fluorescence. Assay was performed similarly with SaCas9 and FnCas12a using the respective enzyme, gRNA, substrate, and quencher oligos. Applicants similarly divulged the effect of PAM sequences of dsDNA on its assay specificity using TGG, TGC, AAC PAM containing substrates for SpCas9 (FIG. 62C), and ACGGGT, ACGGTT, TGCCCA PAM substrate for SaCas9 (FIG. 62F) and TTTC, TTGC, AAAG PAM substrates for FnCpf1 (FIG. 63B-C). Applicants also optimized the effective concentration of DS-AF647 and SS-AF647 fluorophores (FIG. 64A), DS-substrate to SpCas9 RNP ratio (FIG. 64B) and substrate to quencher ratio (FIG. 64C) on assay performance. Similarly, Applicants performed a time course experiment to establish the time required for maximum completion of the reaction at various substrate to SpCas9 RNP ratios (FIG. 64D).
Auto Zscore Rep 1,Auto Zscore Rep 2,Normalized Zscore Rep 1,Normalized Zscore Rep 2,3 sigma Hit,5 sigma Hit,SMILES
−0.2001,1.494,0.1692,0.1845,1,,CCN(Cc1ccccc1)c1ccc(NS(=O)(=O)c2cc(C)ccc2C)cc1C(=O)O [Cpd F294-0010]
−0.4666,0.1007,0.2235,0.1821,1,,CC1CCC(NC(=O)C2(C)Cn3c(cc4occc43)C(=O)N2CCN(C)C2CCCCC2)CC1 (stereo not shown) [Cpd E218-0425]
0.8114,1.196,0.2469,0.2531,1,1,Cc1cc(C)c(S(=O)(=O)Nc2cnc(N3CCCC3)c(C(=O)O)c2)c(C)c1 [Cpd F293-0426]
1.744,−0.999,0.1802,0.1627,1,,Cc1ccc(OCc2nn3c(-c4ccoc4C)nnc3s2)cc1C [Cpd D727-0113]
0.3653,−0.5622,0.1731,0.1458,1,,CN1C(C(=O)Nc2sc3c(c2C(N)=O)CCCC3)=CC(c2ccc(F)cc2)=NS1(=O)=O [Cpd E135-0568]
−1.668,−0.1926,0.1601,0.1044,1,1,Cn1c(=O)c2c(-c3ccccc3)n3c(c2n(C)c1=O)C(c1ccc(O)c(O)c1)Nc1ccccc1-3 (stereo not shown) [Cpd D359-0009]
0.8861,0.3048,0.4351,0.3562,1,1,O=C(CSc1ccc2ccccc2c1)NCCc1ccc(O)c(O)c1 [Cpd T0509-3636]
1.342,0.9231,0.3022,0.2957,1,1,CCN(Cc1ccccc1)c1ncc(NS(=O)(=O)CC)cc1C(=O)O [Cpd F293-0006]
−0.1185,0.01199,0.2241,0.205,1,1,CCN(Cc1ccccc1)c1ccc(NS(=O)(=O)c2c(C)cc(C)cc2C)cc1C(=O)O [Cpd F294-0002]
−0.6022,0.6643,0.2515,0.1978,1,,COc1ccc2cc3c(N)nn(C(=O)c4ccncc4)c3nc2c1 [Cpd C594-0003]
0.257,0.3998,0.4361,0.4132,1,1,O=C1CC(NC(=O)c2ccc(Cl)cc2)C(=O)N1 (stereo not shown) [Cpd T0513-4457]
−2.7,−0.04169,0.1797,0.2066,1,1,O=C1CC(c2ccc(O)c(O)c2)c2c(nc(SCc3ccc(Cl)cc3)[nH]c2=O)N1 (stereo not shown) [Cpd D271-0011]
1.662,−1.14,0.2923,0.2417,1,1,Cc1ccc(C)c(SCC(=O)NC(C)C(c2ccccc2)N2CCOCC2)c1 (stereo not shown) [Cpd T0507-0044]
−0.3069,2.714,0.2035,0.262,1,,Cc1c(NC(=O)C2=Cc3sc4c(c3CS2)CCCC4)c(=O)n(-c2ccccc2)n1C [Cpd E722-2603]
−0.346,−0.1307,0.1224,0.1125,1,,Cc1cccc(Cn2c(SCC(O)CO)nc3c2c(=O)[nH]c(=O)n3C)c1 (stereo not shown) [Compound D226-0165]
2.149,2.534,0.2507,0.2028,1,1,CCN(Cc1ccccc1)c1ncc(NS(=O)(=O)c2cc(C)ccc2C)cc1C(=O)O [Cpd F293-0010]
0.4484,1.331,0.18,0.1781,1,,CCN(Cc1ccccc1)c1ncc(NS(=O)(=O)c2ccc(F)cc2)cc1C(=O)O [Cpd F293-0001]
−0.06844,0.2074,0.342,0.3107,1,1,Cc1nnc(NC(=O)CSc2ccc3nnc(-c4cccc(F)c4)n3n2)s1 [Cpd C742-0431]
0.6685,0.2374,0.2133,0.2195,1,1,Cc1noc2c1C(c1ccc(O)c(O)c1)C1=C(CC(c3ccc(O)cc3)CC1=O)N2 (stereo not shown) [Cpd D588-0188]
1.24,0.8474,0.2151,0.2232,1,1,Cc1cc(-c2nn3c(COc4ccccc4)nnc3s2)no1 [Cpd D727-0624]
